The target of assay [1] is T1, human M3 receptor (Homo sapiens, UniProt P20309).
T1 construct: expressed in transfected cells; host or cells: CHO cells
Description: Test for binding to human M3 receptor. The method in brief:
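CHO-cell crude membranes expressing human M3 were incubated with [N-methyl-3H]-(−)-scopolamine methyl chloride in 50 mM Tris-HCl, 0.5 mM EDTA, pH 7.4, for 60 min at room temperature. Bound ligand was collected on PEI-pretreated glass-fibre filters and counted by liquid scintillation. Ki was calculated from IC50 and the radioligand Kd.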

Assay [2] relates to muscarine M3 receptor. In words: Effect of suppressing methacholine-induced airway contraction (in vivo, intratracheal administration). On the set-up: species or system guinea pig. As to conditions: guinea pigs, intratracheal administration 60 minutes before 30 μg/kg i.v. methacholine; AUC of increase in airway pressure over 10 minutes. In a few lines: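 Anesthetized, gallamine-paralysed, ventilated male Hartley guinea pigs (350–550 g); compound in 5% glucose given intratracheally 60 min before 30 μg/kg i.v. methacholine. Airway pressure AUC over 10 min scored; ID50 from inhibition versus 5% glucose vehicle group.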

Assay [3] addresses T2, neurokinin NK2 receptor (Cavia porcellus, UniProt Q64077).
T2 construct: Using healthy guinea pigs (body weight, 350 to 550 g; Hartley male guinea pigs); from tissue; host or cells: live anaesthetised Hartley male guinea pigs (airway, in vivo)
T2 sequence (Q64077 1-402): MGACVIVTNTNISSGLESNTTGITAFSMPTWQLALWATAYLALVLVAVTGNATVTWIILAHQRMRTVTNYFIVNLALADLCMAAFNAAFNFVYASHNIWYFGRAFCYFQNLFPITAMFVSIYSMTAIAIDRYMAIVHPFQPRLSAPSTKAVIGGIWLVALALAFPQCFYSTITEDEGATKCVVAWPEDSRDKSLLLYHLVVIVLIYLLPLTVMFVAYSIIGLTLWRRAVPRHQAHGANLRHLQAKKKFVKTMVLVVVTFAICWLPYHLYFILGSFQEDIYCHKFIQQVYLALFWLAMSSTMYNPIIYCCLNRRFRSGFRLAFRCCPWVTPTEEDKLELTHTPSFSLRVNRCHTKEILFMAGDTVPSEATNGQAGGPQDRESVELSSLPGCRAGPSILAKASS
Description: Effect of suppressing neurokinin A-induced airway contraction (in vivo, intratracheal administration). On the set-up: species or system guinea pig. To be noted: guinea pig; guinea pigs, intratracheal administration 60 minutes before 4 μg/kg i.v. NKA; AUC of increase in airway pressure over 10 minutes; read-out: ID50 (the source's name). In a few lines:
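Anesthetized, gallamine-paralysed, ventilated male Hartley guinea pigs received compound in 5% glucose intratracheally 60 minutes before 4 μg/kg NKA i.v. AUC of airway pressure increase over 10 minutes gave inhibition versus vehicle controls, expressed as ID50.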

Setting [4] is: CHO cells expressing human M3 receptor, [N-methyl-3H]-(-)-Scopolamine methyl chloride 0.5 nM, Ki from IC50 and Kd, read-out: Ki.

Where a name gives a salt, the structure may show the parent alone. Read-outs that look alike come from different tables or passages of the source.

As a reminder, the Ki is a measure of affinity in units of concentration, obtained from inhibition or displacement.

T1 sequence (P20309 whole entry): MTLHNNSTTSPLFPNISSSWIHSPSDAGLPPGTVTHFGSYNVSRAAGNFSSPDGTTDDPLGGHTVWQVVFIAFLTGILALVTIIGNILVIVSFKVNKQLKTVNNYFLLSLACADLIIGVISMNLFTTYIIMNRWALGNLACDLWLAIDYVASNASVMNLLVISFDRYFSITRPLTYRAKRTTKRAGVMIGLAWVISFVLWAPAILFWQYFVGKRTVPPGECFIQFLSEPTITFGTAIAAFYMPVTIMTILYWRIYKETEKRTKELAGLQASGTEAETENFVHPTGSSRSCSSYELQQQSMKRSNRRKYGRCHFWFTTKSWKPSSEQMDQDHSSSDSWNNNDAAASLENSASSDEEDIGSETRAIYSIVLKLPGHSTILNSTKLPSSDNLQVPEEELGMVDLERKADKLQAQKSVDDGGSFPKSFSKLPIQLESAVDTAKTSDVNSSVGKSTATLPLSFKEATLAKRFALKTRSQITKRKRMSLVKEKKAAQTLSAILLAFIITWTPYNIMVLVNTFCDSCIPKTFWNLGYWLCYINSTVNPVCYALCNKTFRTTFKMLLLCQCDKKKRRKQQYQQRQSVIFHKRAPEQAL

In assay [1], `Cc1cc(NCCCCCC(=O)N(C)CCN2CCC(OC(=O)Nc3ccccc3-c3ccccc3)CC2)sc1C(=O)N(C)CCCN(C)C(=O)CO[C@H]1Cc2ccccc2C12CCN(CC[C@@]1(c3ccc(F)cc3)CN(C(=O)c3cc(C(F)(F)F)cc(C(F)(F)F)c3)CO1)CC2` [Example 30, 1-(2-{[6-({5-[{3-[({[(2S)-1′-{2-[(5R)-3-[3,5-Bis(trifluoromethyl)benzoyl]-5-(4-fluorophenyl)-1,3-oxazolidin-5-yl]ethyl}-2,3-dihydrospiro[indene-1,4′-piperidin]-2-yl]oxy}acetyl)(methyl)amino]propyl}(methyl)carbamoyl]-4-methyl-2-thienyl}amino)hexanoyl](methyl)amino}ethyl)piperidin-4-yl biphenyl-2-ylcarbamate trihydrochloride] had a Ki of 0.62 nM. For the same molecule, the ID50 in assay [2] was determined as 0.0088 mg/kg. For the same molecule, the ED50 in assay [3] amounted to 0.0632 mg/kg.

In assay [1], `CN(CCN1CCC(OC(=O)Nc2ccccc2-c2ccccc2)CC1)C(=O)CCCCNc1ccc(C(=O)N(C)CCCN(C)C(=O)CO[C@H]2Cc3ccccc3C23CCN(CC[C@@]2(c4ccc(F)cc4)CN(C(=O)c4cc(C(F)(F)F)cc(C(F)(F)F)c4)CO2)CC3)cc1` [Example 32, 1-(2-{[5-({4-[{3-[({[(2S)-1′-{2-[(5R)-3-[3,5-Bis(trifluoromethyl)benzoyl]-5-(4-fluorophenyl)-1,3-oxazolidin-5-yl]ethyl}-2,3-dihydrospiro[indene-1,4′-piperidin]-2-yl]oxy}acetyl)(methyl)amino]propyl}(methyl)carbamoyl]phenyl}amino)pentanoyl](methyl)amino}ethyl)piperidin-4-yl biphenyl-2-ylcarbamate trihydrochloride] displayed a Ki of 1.1 nM. The molecule also had an ID50 in assay [2] of 0.0356 mg/kg. In addition, in assay [3], the ED50 was 0.0356 mg/kg.

On to `CN(CCN1CCC(OC(=O)Nc2ccccc2-c2ccccc2)CC1)C(=O)CCCCCNCc1ccc(C(=O)N(C)CCCN(C)C(=O)CO[C@H]2Cc3ccccc3C23CCN(CC[C@@]2(c4ccc(F)cc4)CN(C(=O)c4cc(C(F)(F)F)cc(C(F)(F)F)c4)CO2)CC3)s1` [Example 1, 1-{2-[{6-[({5-[{3-[({[(2S)-1′-{2-[(5R)-3-[3,5-Bis(trifluoromethyl)benzoyl]-5-(4-fluorophenyl)-1,3-oxazolidin-5-yl]ethyl}-2,3-dihydrospiro[indene-1,4′-piperidin]-2-yl]oxy}acetyl)(methyl)amino]propyl}(methyl)carbamoyl]-2-thienyl}methyl)amino]hexanoyl}(methyl)amino]ethyl}piperidin-4-yl biphenyl-2-ylcarbamate], for which the inhibition constant Ki in assay [1] (setting [4]) was 1.4 nM. In assay [2], this molecule yielded an ID50 of 0.0177 mg/kg. For the same molecule, the ED50 in assay [3] is 0.0049 mg/kg.

`CN(CCN1CCC(OC(=O)Nc2ccccc2-c2ccccc2)CC1)C(=O)CCCCCNc1ccc(C(=O)N(C)CCCN(C)C(=O)CO[C@H]2Cc3ccccc3C23CCN(CC[C@@]2(c4ccc(F)cc4)CN(C(=O)c4cc(C(F)(F)F)cc(C(F)(F)F)c4)CO2)CC3)cc1` [Example 72, 1-(2-{[6-({4-[{3-[({[(2S)-1′-{2-[(5R)-3-[3,5-Bis(trifluoromethyl)benzoyl]-5-(4-fluorophenyl)-1,3-oxazolidin-5-yl]ethyl}-2,3-dihydrospiro[indene-1,4′-piperidin]-2-yl]oxy}acetyl)(methyl)amino]propyl}(methyl)carbamoyl]phenyl}amino)hexanoyl](methyl)amino}ethyl)piperidin-4-yl biphenyl-2-ylcarbamate]: the Ki in assay [1] (setting [4]) was determined as 1.6 nM. In assay [2], this molecule yielded an ID50 of 0.0635 mg/kg. Also, in assay [3], the ED50 is 0.0151 mg/kg.

`CN(CCN1CCC(OC(=O)Nc2ccccc2-c2ccccc2)CC1)C(=O)CCCN(C)c1ccc(C(=O)N(C)CCCN(C)C(=O)CO[C@H]2Cc3ccccc3C23CCN(CC[C@@]2(c4ccc(F)cc4)CN(C(=O)c4cc(C(F)(F)F)cc(C(F)(F)F)c4)CO2)CC3)cc1` [Example 36, 1-{2-[{4-[{4-[{3-[({[(2S)-1′-{2-[(5R)-3-[3,5-Bis(trifluoromethyl)benzoyl]-5-(4-fluorophenyl)-1,3-oxazolidin-5-yl]ethyl}-2,3-dihydrospiro[indene-1,4′-piperidin]-2-yl]oxy}acetyl)(methyl)amino]propyl}(methyl)carbamoyl]phenyl}(methyl)amino]butanoyl}(methyl)amino]ethyl}piperidin-4-yl biphenyl-2-ylcarbamate trihydrochloride] registered a Ki in assay [1] of 1.8 nM. Besides, the ID50 in assay [2] was found to be 0.0146 mg/kg. The ED50 in assay [3] came to 0.0168 mg/kg.

Consider `CN(CCN1CCC(OC(=O)Nc2ccccc2-c2ccccc2)CC1)C(=O)CCN(C)c1ccc(C(=O)N(C)CCCN(C)C(=O)CO[C@H]2Cc3ccccc3C23CCN(CC[C@@]2(c4ccc(F)cc4)CN(C(=O)c4cc(C(F)(F)F)cc(C(F)(F)F)c4)CO2)CC3)cc1` [Example 95, 1-{2-[(N-{4-[{3-[({[(2S)-1′-{2-[(5R)-3-[3,5-Bis(trifluoromethyl)benzoyl]-5-(4-fluorophenyl)-1,3-oxazolidin-5-yl]ethyl}-2,3-dihydrospiro[indene-1,4′-piperidin]-2-yl]oxy}acetyl)(methy)amino]propyl}(methyl)carbamoyl]phenyl}-N-methyl-β-alanyl)(methyl)amino]ethyl}piperidin-4-yl biphenyl-2-ylcarbamate], for which the inhibition constant Ki in assay [1] (setting [4]) worked out at 2.1 nM. The same molecule registered an ID50 in assay [2] of 0.0462 mg/kg. Also, the ED50 in assay [3] is 0.039 mg/kg.

`CN(CCN1CCC(OC(=O)Nc2ccccc2-c2ccccc2)CC1)C(=O)CCCCCNc1ccc(N(C)C(=O)CCCN(C)C(=O)CO[C@H]2Cc3ccccc3C23CCN(CC[C@@]2(c4ccc(F)cc4)CN(C(=O)c4cc(C(F)(F)F)cc(C(F)(F)F)c4)CO2)CC3)cc1` [Example 84, 1-(2-{[6-({4-[{-4-[({[(2S)-1′-{2-[(5R)-3-[3,5-Bis(trifluoromethyl)benzoyl]-5-(4-fluorophenyl)-1,3-oxazolidin-5-yl]ethyl}-2,3-dihydrospiro[indene-1,4′-piperidin]-2-yl]oxy}acetyl)(methyl)amino]butanoyl}(methyl)amino]phenyl}amino)hexanoyl](methyl)amino}ethyl)piperidin-4-yl biphenyl-2-ylcarbamate trihydrochloride] yielded a Ki in assay [1] of 1.2 nM. In assay [2], this molecule displayed an ID50 of 0.0143 mg/kg. In addition, the ED50 in assay [3] came out at 0.0221 mg/kg.

Regarding `CN(CCN1CCC(OC(=O)Nc2ccccc2-c2ccccc2)CC1)C(=O)CCOCCNc1ccc(C(=O)N(C)CCCN(C)C(=O)CO[C@H]2Cc3ccccc3C23CCN(CC[C@@]2(c4ccc(F)cc4)CN(C(=O)c4cc(C(F)(F)F)cc(C(F)(F)F)c4)CO2)CC3)cc1` [Example 29, 1-{2-[{3-[2-({4-[{3-[({[(2S)-1′-{2-[(5R)-3-[3,5-Bis(trifluoromethyl)benzoyl]-5-(4-fluorophenyl)-1,3-oxazolidin-5-yl]ethyl}-2,3-dihydrospiro[indene-1,4′-piperidin]-2-yl]oxy}acetyl)(methy)amino]propyl}(methyl)carbamoyl]phenyl}amino)ethoxy]propanoyl}(methyl)amino]ethyl}piperidin-4-yl biphenyl-2-ylcarbamate trihydrochloride], the Ki in assay [1] (setting [4]) stood at 1.7 nM. Moreover, the ID50 in assay [2] worked out at 0.0266 mg/kg. In assay [3], the ED50 stood at 0.0438 mg/kg.

`CN(CCN1CCC(OC(=O)Nc2ccccc2-c2ccccc2)CC1)C(=O)COCCCNc1ccc(C(=O)N(C)CCCN(C)C(=O)CO[C@H]2Cc3ccccc3C23CCN(CC[C@@]2(c4ccc(F)cc4)CN(C(=O)c4cc(C(F)(F)F)cc(C(F)(F)F)c4)CO2)CC3)cc1` [Example 27, 1-{2-[{[3-({4-[{3-[({[(2S)-1′-{2-[(5R)-3-[3,5-Bis(trifluoromethyl)benzoyl]-5-(4-fluorophenyl)-1,3-oxazolidin-5-yl]ethyl}-2,3-dihydrospiro[indene-1,4′-piperidin]-2-yl]oxy}acetyl)(methyl)amino]propyl}(methyl)carbamoyl]phenyl}amino)propoxy]acetyl}(methyl)amino]ethyl}piperidin-4-yl biphenyl-2-ylcarbamate trihydrochloride]: the Ki in assay [1] was 1.4 nM. Moreover, in assay [2], the ID50 came to 0.0218 mg/kg. Moreover, the ED50 in assay [3] is 0.0135 mg/kg.
